# Test results from patent US20040248209A1, “Use of g protein-coupled receptor protein” (priority 2001, published 2004).
# Columns and labels:
# Type in all cases: cell-based
# H7TMB56 [1] = target: T1, H7TMB56 (Homo sapiens, UniProt Q96LA9); assay: intracellular cAMP production promoting activity in CHO cells stably expressing H7TMB56 (clone 22) versus mock cells; conditions: for intracellular cAMP production promoting activity, dose dependency: CHO cell clone highly expressing H7TMB56, FIG. 13; for cAMP production promoting activity (specific agonist activity): dose of 10 μM, H7TMB56 CHO cells (FIG. 10) versus mock cells (FIG. 11); for agonist activity to H7TMB56 (cAMP production), specificity and dose dependency: CHO clone 22 versus mock cells, FIGS. 8 and 9
# T1 construct: expressed in transfected cells
# T1 sequence (Q96LA9 whole entry): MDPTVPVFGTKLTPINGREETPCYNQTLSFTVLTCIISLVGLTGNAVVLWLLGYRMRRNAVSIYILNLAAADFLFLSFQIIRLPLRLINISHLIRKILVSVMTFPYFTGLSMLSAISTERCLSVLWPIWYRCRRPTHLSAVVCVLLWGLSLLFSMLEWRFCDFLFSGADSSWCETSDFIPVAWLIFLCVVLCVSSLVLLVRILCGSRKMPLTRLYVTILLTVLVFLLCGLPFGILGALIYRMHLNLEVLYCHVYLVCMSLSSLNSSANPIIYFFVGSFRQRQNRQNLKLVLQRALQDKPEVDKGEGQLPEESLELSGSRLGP
# Method: The same expression vector as used in EXAMPLE 1 was transfected to CHO dhfr^− cells using Gene Transfer (Wako Pure Chemical Industries, Ltd.), which was cultured in nucleic acid-free medium to select transformants. […] The intracellular cAMP level was assayed using cAMP Screen Kit (Applied Biosystems, Inc.). […] Furthermore, the cAMP production promoting activities on H7TMB56 (FIG. 10) and mock cells (FIG. 11) were assayed with respect to various isoprenoid-related substances in a dose of 10 μM (1: isopentenyl pyrophosphate, 2: dimethylallyl pyrophosphate, 3: geranyl pyrophosphate, 4: farnesyl pyrophosphate, 5: geranylgeranyl pyrophosphate, 6: geraniol, 7: farnesol, 8: geranylgeraniol, 9: trans, trans-farnesol, 10: trans, trans-farnesyl bromide, 11: geranyl acetone, 12: geranyl acetate, 13: geranylamine and 14: geranyl chloride). As a result, the agonist activity specific to geranyl pyrophosphate was detected as well, in addition to farnesyl pyrophosphate and geranylgeranyl pyrophosphate (FIG. 10).
# In a manner similar to EXAMPLE 2, the intracellular cAMP production promoting activity was assayed on 5 isoprenoid-related substances.
# H7TMB56 [2] = target: T1, H7TMB56; assay: CRE promoter luciferase reporter gene assay in HEK293 cells transiently expressing H7TMB56; conditions: HEK293 cells bearing the H7TMB56 gene (SEQ ID NO: 2) versus other receptor control; 2×10^−4 to 10^−5 M; 4 hours; FIGS. 5 to 7
# Text: The H7TMB56-specific stimulating activity by the isoprenoid-related substances was detected using as an indicator the expression level of reporter gene product (luciferase) produced by expression induction of CRE promoter.
# HEK293 cells were suspended in growth medium (DMEM (Dulbecco's Modified Eagle Medium) (Gibco BRL) supplemented with 10% fetal bovine serum (Gibco BRL)) and plated on a 96-well plate of black well (Beckton-Dickinson, Inc.) coated with collagen in 1×10^5 cells/well. […]
# The transfected HEK293 cells were washed with an assay buffer (DMEM supplemented with 0.1 % bovine serum albumin), and commercially available compounds containing farnesyl pyrophosphate (Sigma) and geranylgeranyl pyrophosphate (Sigma) diluted with the assay buffer were added to the cells, respectively, in 2×10^−4 to 10^−5 M, followed by incubation at 37° C. for 4 hours in 5% CO2. After the supernatant was discarded, 50 μl of PicaGene LT2.0 (Toyo Ink Mfg. Co., Ltd.) was added as a substrate for assaying the luciferase activity and a luminescence level of the luciferase was measured on a plate reader (ARVO sx Multi-Label Counter, Wallac, Inc.).
# H7TMB56 [3] = target: T1, H7TMB56; assay: activation (phosphorylation) of p44/42 MAP kinase in H7TMB56 expression CHO cells versus mock cells, western blotting; conditions: 0.1 μM, 0, 5, 10 minutes, FIG. 14
# Method: H7TMB56 expression CHO cells and mock cells were plated on a 6-well plate in 3×10^5 cells/well, followed by incubation overnight. In order to make serum free, the medium was replaced by nucleic acid-free α-MEM medium supplemented with 0.1% BSA and incubation was further continued overnight. Immediately before the assay, pre-incubation was again carried out for 2 hours. After 0.1 μM of farnesyl pyrophosphate was added to the medium to initiate the treatment, the medium was removed by suction at regular time intervals and then a sample buffer for SDS-PAGE was added to terminate the reaction. SDS-PAGE was performed in a conventional manner to transfer the protein onto a nitrocellulose filter. Thereafter, phosphorylated p44/42 MAP kinase was detected following the instructions described in the manual of PhosphoPlus p44/42 MAPK (Thr202/Tyr204) Antibody Kit (Cell Signaling, Inc.).
# H7TMB56 [4] = target: T1, H7TMB56; assay: internalization of H7TMB56-GFP fused protein in CHO cells, confocal microscope; conditions: 10^−6 M added to the medium
# Text: An expression plasmid was constructed to express a fused protein of Green Fluorescent Protein (GFP) cDNA isolated from jelly fish Auquorea victoria, fused to H7TMB56 at the C-terminus to fit the translation frame. In this case, a fragment excised out of GFP expression vector pQBI25 (Takara Shuzo Co., Ltd.) was used as GFP cDNA. In H7TMB56, its termination codon was modified by PCR to recognition sequence with restriction enzyme NheI, and the GFP fragment was ligated thereto, which was inserted into the expression vector pAKKO-111H described in EXAMPLE 1. The thus obtained plasmid of the H7TMB56 and GFP -fused protein expression vector was transfected to CHO cells by the following procedure. CHO cells were suspended in a growth medium [DMEM (Dulbecco's Modified Eagle Medium) (GIBCO BRL, Inc.) supplemented with 10% fetal bovine serum, and plated on a Lab-Tekii cover glass chamber with 4 chambers (Nalgen Nunc, Inc.) in a concentration of 0.6×10^5 cells/chamber. After incubation overnight at 37° C. in 5% CO2, transfection was performed. For transfection, Lipofectamine™ 2000 Reagent (GIBCO BRL, Inc., Inc.) was used. First, 2 μl of Lipofectamine™ 2000 Reagent was mixed with 50 μl of OPTI-MEM-I (GIBCO BRL, Inc.). […]
Structure (SMILES),"intracellular cAMP production promoting activity, dose dependency (H7TMB56 [1])",cAMP production promoting activity (specific agonist activity) (H7TMB56 [1]),luciferase activity (expression level of reporter gene product by CRE promoter) (H7TMB56 [2]),"agonist activity to H7TMB56 (cAMP production), specificity and dose dependency (H7TMB56 [1])",phosphorylation of p44/42 MAP kinase (H7TMB56 [3]),internalization of H7TMB56-GFP from cell membrane to cytoplasm (H7TMB56 [4])
CC(C)=CCC/C(C)=C/COP(=O)(O)OP(=O)(O)O [geranyl pyrophosphate],promoted the production of cAMP dose-dependently,detected,,,,
CC(C)=CCC/C(C)=C/CC/C(C)=C/CC/C(C)=C/COP(=O)(O)OP(=O)(O)O [geranylgeranyl pyrophosphate],promoted the production of cAMP dose-dependently,detected,increased,confirmed the specificity in the agonist activities,,
CC(C)=CCC/C(C)=C/CC/C(C)=C/COP(=O)(O)OP(=O)(O)O [farnesyl pyrophosphate],promoted the production of cAMP dose-dependently,detected,increased,confirmed the specificity in the agonist activities,phosphorylation of MAP kinase was detected,internalization occurred
